The values below come from PubChem BioAssay (NCI).

Test systems include HS 578T breast; HL-60(TB) leukemia; COLO 205 colon; SF-268 CNS; 786-0 renal; SN12C renal; SK-MEL-5 melanoma; U251 CNS; KM12 colon; LOX IMVI melanoma.
Holding throughout (test): inhibition of tumour cell growth, NCI panel, 48 h

SMILES strings stand for the structures.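 96-well plates; 48 h exposure; 5 concentrations. Endpoints by linear interpolation between flanking doses. Not reached: highest tested concentration assigned. GI50 marks 50% less growth. At the TGI there is no net growth.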 A value given as a limit tells only on which side of the number the result lay.

For `CCC(CC)c1nc(Nc2ccc(C(=O)OC)cc2)c2ccccc2n1`, the GI50 in the assay on HS 578T breast is 10900 nM; in the assay with HL-60(TB) leukemia, 8170 nM; with COLO 205 colon it was 8200 nM; in the assay with SF-268 CNS it was 6690 nM; in the assay with 786-0 renal, 10900 nM; with SN12C renal, 7830 nM. Moreover, the GI50 was 7820 nM with SK-MEL-5 melanoma, 8500 nM with U251 CNS, 8010 nM in the assay on KM12 colon and 11100 nM with LOX IMVI melanoma. The TGI with HS 578T breast amounted to 26500 nM; with HL-60(TB) leukemia it was 26000 nM; in the assay on COLO 205 colon it was 15000 nM; with SF-268 CNS it was 19100 nM; in the assay with 786-0 renal it was 26500 nM; in the assay with SN12C renal it was 16300 nM. Further, the TGI in the assay on SK-MEL-5 melanoma came out at 16100 nM; in the assay with U251 CNS it was 19000 nM; in the assay with KM12 colon it was 18000 nM; in the assay on LOX IMVI melanoma, 31700 nM.
Consider `Cn1cc(C2=C(c3ccccc3[N+](=O)[O-])C(=O)NC2=O)c2ccccc21`, for which the GI50 was 975 nM in the assay with HS 578T breast; 2110 nM in the assay on HL-60(TB) leukemia; 2790 nM in the assay with COLO 205 colon; 5640 nM with SF-268 CNS; 3200 nM in the assay on 786-0 renal; 4980 nM with SN12C renal. For the same compound, the GI50 is 2860 nM in the assay on SK-MEL-5 melanoma, 1770 nM in the assay on U251 CNS, 3250 nM in the assay on KM12 colon and 3130 nM in the assay with LOX IMVI melanoma. Also, the TGI was greater than 16900 nM in the assay on HS 578T breast; 13900 nM in the assay with HL-60(TB) leukemia; 6380 nM in the assay on COLO 205 colon; 18000 nM in the assay on SF-268 CNS; greater than 25000 nM with 786-0 renal; greater than 25000 nM in the assay on SN12C renal. Also, the TGI with SK-MEL-5 melanoma was 8060 nM; in the assay with U251 CNS, greater than 25000 nM; with KM12 colon, 13300 nM; with LOX IMVI melanoma, greater than 25000 nM.
With `CCOC(=O)[C@@H](C)C[C@H](Cc1ccccc1)NC(=O)c1nc([C@@H](C[C@H](C(C)C)N(C)C(=O)[C@@H](NC(=O)[C@H]2CCCCN2C)C(C)C)OC(C)=O)sc1CCOCc1ccccc1`, the GI50 with HS 578T breast is 83 nM; in the assay on HL-60(TB) leukemia, 39.4 nM; in the assay on COLO 205 colon, 52.2 nM; in the assay on SF-268 CNS it was 158 nM; in the assay on 786-0 renal, 80 nM; in the assay with SN12C renal, 70.6 nM. Moreover, the GI50 is 50 nM with SK-MEL-5 melanoma, 71.6 nM in the assay with U251 CNS, 44.2 nM with KM12 colon and 60.9 nM with LOX IMVI melanoma. Further, the TGI in the assay with HS 578T breast amounted to 2850 nM; with HL-60(TB) leukemia it was 190 nM; in the assay with COLO 205 colon, 276 nM; with SF-268 CNS, 2300 nM; with 786-0 renal, 1590 nM; in the assay with SN12C renal, 1550 nM. Besides, the TGI in the assay on SK-MEL-5 melanoma amounted to 380 nM; in the assay on U251 CNS, 1620 nM; in the assay on KM12 colon, 1480 nM; with LOX IMVI melanoma it was 1540 nM.
Take `N#Cc1c(NC(=O)NCc2ccccc2)sc2c1CCCC2`: the GI50 is 404 nM in the assay on HS 578T breast; 300 nM in the assay on HL-60(TB) leukemia; 593 nM in the assay with COLO 205 colon; 1820 nM in the assay on SF-268 CNS; 822 nM in the assay with 786-0 renal; 813 nM in the assay with SN12C renal. For the same compound, the GI50 in the assay on SK-MEL-5 melanoma is 439 nM; with U251 CNS, 660 nM; in the assay on KM12 colon it was 425 nM; in the assay with LOX IMVI melanoma, 643 nM. For the same compound, the TGI is greater than 100000 nM in the assay on HS 578T breast; 3130 nM in the assay on HL-60(TB) leukemia; greater than 28900 nM in the assay with COLO 205 colon; greater than 100000 nM in the assay with SF-268 CNS; greater than 100000 nM in the assay on 786-0 renal; greater than 100000 nM with SN12C renal. For the same compound, the TGI was 6930 nM in the assay on SK-MEL-5 melanoma, greater than 81700 nM in the assay with U251 CNS, greater than 100000 nM in the assay on KM12 colon and greater than 100000 nM with LOX IMVI melanoma.
Turning to `COC1C(CO)OC(n2c3ccccc3c3c4c(c5c6ccccc6[nH]c5c32)C(=O)NC4=O)C(O)C1O` (stereo not given), the GI50 is 180 nM with HS 578T breast; 11.4 nM in the assay with HL-60(TB) leukemia; less than 36 nM in the assay with COLO 205 colon; 18.9 nM with SF-268 CNS; 46.7 nM in the assay with 786-0 renal; less than 18.7 nM in the assay on SN12C renal. Also, the GI50 in the assay on SK-MEL-5 melanoma is 13.3 nM; with U251 CNS it was less than 10 nM; in the assay on KM12 colon, 17.6 nM; with LOX IMVI melanoma it was less than 10 nM. Besides, the TGI is 757 nM in the assay with HS 578T breast; 34 nM in the assay on HL-60(TB) leukemia; 2140 nM in the assay on COLO 205 colon; 586 nM in the assay on SF-268 CNS; 1120 nM in the assay with 786-0 renal; 111 nM in the assay with SN12C renal. The TGI came to 60.8 nM with SK-MEL-5 melanoma, 141 nM in the assay with U251 CNS, 550 nM in the assay with KM12 colon and 35.2 nM with LOX IMVI melanoma.
Regarding `COc1ccc(/C=C(/C(=O)N2CCN(c3ccccc3)CC2)c2cc(OC)c(OC)c(OC)c2)cc1N`, the GI50 with HS 578T breast is 357 nM; in the assay with HL-60(TB) leukemia it was 241 nM; in the assay with COLO 205 colon, 362 nM; in the assay with SF-268 CNS, 711 nM; in the assay with 786-0 renal, 766 nM; in the assay with SN12C renal, 643 nM. The GI50 with SK-MEL-5 melanoma is 386 nM; in the assay on U251 CNS it was 361 nM; in the assay with KM12 colon, 423 nM; in the assay with LOX IMVI melanoma it was 696 nM. In addition, the TGI is greater than 100000 nM with HS 578T breast; 596 nM in the assay with HL-60(TB) leukemia; 2430 nM with COLO 205 colon; greater than 100000 nM in the assay with SF-268 CNS; greater than 100000 nM with 786-0 renal; greater than 100000 nM in the assay on SN12C renal. The TGI was 10900 nM in the assay with SK-MEL-5 melanoma, greater than 100000 nM in the assay on U251 CNS, greater than 100000 nM in the assay with KM12 colon and greater than 100000 nM with LOX IMVI melanoma.
For `CN1CCC(COc2cnc(-c3cccc(Cn4nc(-c5cccc(C#N)c5)ccc4=O)c3)nc2)CC1`, the GI50 is 4630 nM in the assay on HS 578T breast; 2000 nM in the assay on HL-60(TB) leukemia; 1920 nM with COLO 205 colon; 3810 nM with SF-268 CNS; 1970 nM with 786-0 renal; 6890 nM in the assay with SN12C renal. Also, the GI50 in the assay with SK-MEL-5 melanoma was 1490 nM; in the assay with U251 CNS, 2430 nM; in the assay on KM12 colon it was 4360 nM; in the assay on LOX IMVI melanoma it was 1930 nM. For the same compound, the TGI in the assay on HS 578T breast stood at 19800 nM; in the assay with HL-60(TB) leukemia it was 4020 nM; in the assay with COLO 205 colon, 3680 nM; with SF-268 CNS it was 16400 nM; in the assay with 786-0 renal it was 3860 nM; with SN12C renal, 19600 nM. The TGI in the assay with SK-MEL-5 melanoma is 2850 nM; in the assay with U251 CNS it was 7680 nM; with KM12 colon, 16500 nM; in the assay with LOX IMVI melanoma it was 4090 nM.
